Assay results published in ChEMBL document CHEMBL5360518, “Discovery of a novel photoswitchable PI3K inhibitor toward optically-controlled anticancer activity” (Bioorg Med Chem, 2022).
Calls of active or inactive are those of the source. The calls are words filed in the database; no cut-off is given here.

Key:
HGC-27 [1] = experiment: (§1) Induction of apoptosis in human HGC-27 cells harboring PI3KCA mutation and overactive PI3K pathway assessed as early apoptotic cells at 0.4 uM incubated for 48 hrs under irradiation with 365 nm UV light 2 mins once for every 8 hrs by Annexin V-FITC/PI staining based flow cytometry analysis (reference value: 2.26%); type: functional
[2] = target: T1, Ribosomal protein S6 kinase (Homo sapiens) (UniProt P51812+Q9UBS0+O75676+Q15349+O75582+P23443+Q9UK32+Q15418); experiment: Inhibition of S6 phosphorylation in human HGC-27 cells harboring PI3KCA mutation and overactive PI3K pathway at 0.08 to 0.4 uM compound irradiated for 5 mins at 520 nm by Western blot analysis; type: cell-based; settings: dose 0.08-0.4 µM
HGC-27 [3] = experiment: (§2) Antitumor activity against CM-Dil labeled human HGC-27 cells implanted in yolk sac of Albino wild type zebrafish embryos assessed as inhibition of tumor growth by measuring reduction in fluorescence density at 0.391 to 0.781 ng per fish incubated for 48 hrs in presence of irradiation with 365 nm UV light by fluorescence microscopic analysis; type: functional, cell-based; settings: dose 0.391-0.781 ng
[4] = target: T2, Phosphatidylinositol 4,5-bisphosphate 3-kinase catalytic subunit alpha isoform (Homo sapiens, UniProt P42336); experiment: Inhibition of PI3Kalpha (unknown origin) using PIP2 as substrate incubated for 1 hr in presence of ATP under irradiation with 365 nm UV light by ADP-Glo luminescent assay
T2 sequence (P42336 whole entry, canonical isoform): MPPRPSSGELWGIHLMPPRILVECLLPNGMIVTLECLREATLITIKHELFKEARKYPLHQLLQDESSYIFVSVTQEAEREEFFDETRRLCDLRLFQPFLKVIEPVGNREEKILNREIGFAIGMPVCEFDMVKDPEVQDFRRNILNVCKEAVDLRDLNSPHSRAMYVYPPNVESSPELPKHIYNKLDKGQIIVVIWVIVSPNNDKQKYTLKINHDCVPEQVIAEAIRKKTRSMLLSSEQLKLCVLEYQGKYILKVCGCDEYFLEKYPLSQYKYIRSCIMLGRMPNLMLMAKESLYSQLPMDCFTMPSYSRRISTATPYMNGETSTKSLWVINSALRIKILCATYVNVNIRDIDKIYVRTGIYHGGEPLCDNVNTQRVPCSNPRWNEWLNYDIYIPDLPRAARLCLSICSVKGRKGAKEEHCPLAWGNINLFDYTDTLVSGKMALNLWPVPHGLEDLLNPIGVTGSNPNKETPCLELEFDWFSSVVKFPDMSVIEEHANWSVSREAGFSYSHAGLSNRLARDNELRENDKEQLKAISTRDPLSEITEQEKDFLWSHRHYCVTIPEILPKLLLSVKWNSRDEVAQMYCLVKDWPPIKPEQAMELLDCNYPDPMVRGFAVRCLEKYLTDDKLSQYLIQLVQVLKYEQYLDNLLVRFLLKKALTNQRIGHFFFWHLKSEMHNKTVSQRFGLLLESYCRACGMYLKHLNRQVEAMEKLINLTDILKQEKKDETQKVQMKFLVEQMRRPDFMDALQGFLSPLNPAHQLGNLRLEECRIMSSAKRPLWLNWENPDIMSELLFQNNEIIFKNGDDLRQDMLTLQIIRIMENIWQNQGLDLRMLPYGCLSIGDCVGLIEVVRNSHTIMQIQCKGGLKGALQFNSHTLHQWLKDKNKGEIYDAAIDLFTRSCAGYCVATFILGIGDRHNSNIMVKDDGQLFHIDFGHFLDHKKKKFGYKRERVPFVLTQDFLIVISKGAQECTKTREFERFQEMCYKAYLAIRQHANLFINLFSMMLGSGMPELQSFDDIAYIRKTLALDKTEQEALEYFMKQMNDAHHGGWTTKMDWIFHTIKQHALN

HGC-27 [5] = experiment: as §1, with “late” for “early”, “0.08” for “0.4”, “3.39%)” for “2.26%)”; type: functional
HGC-27 [6] = experiment: as §1, with “late” for “early”, “3.39%)” for “2.26%)”; type: functional
HGC-27 [7] = experiment: as §1, with “0.08” for “0.4”; type: functional
[8] = target: RAC-alpha serine/threonine-protein kinase (Homo sapiens) (UniProt P31749); experiment: Inhibition of AKT phosphorylation at T308 residue in human HGC-27 cells harboring PI3KCA mutation and overactive PI3K pathway at 0.08 to 0.4 uM compound irradiated for 5 mins at 520 nm by Western blot analysis; type: cell-based; settings: dose 0.08-0.4 µM
RAC-alpha serine/threonine-protein kinase (Homo sapiens), sequence (P31749 whole entry): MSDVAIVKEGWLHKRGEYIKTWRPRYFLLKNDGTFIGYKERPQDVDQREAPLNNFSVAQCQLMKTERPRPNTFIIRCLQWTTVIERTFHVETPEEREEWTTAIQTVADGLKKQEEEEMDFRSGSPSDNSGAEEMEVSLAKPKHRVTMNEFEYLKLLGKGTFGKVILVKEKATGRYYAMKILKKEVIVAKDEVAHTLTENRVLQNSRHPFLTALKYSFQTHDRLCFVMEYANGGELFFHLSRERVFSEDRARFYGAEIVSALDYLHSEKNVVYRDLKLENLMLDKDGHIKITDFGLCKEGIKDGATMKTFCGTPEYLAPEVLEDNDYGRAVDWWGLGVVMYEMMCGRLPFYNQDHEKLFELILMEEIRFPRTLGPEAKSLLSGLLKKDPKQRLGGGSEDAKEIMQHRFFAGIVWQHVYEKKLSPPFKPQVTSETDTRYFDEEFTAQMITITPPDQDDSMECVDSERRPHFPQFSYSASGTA

NCI-H460 [9] = experiment: as §1, with “NCI-H460” for “HGC-27”, “late” for “early”, “0.08” for “0.4”, “2.27%)” for “2.26%)”; type: functional
[10] = target: RAC-alpha serine/threonine-protein kinase (Homo sapiens) (UniProt P31749); experiment: Inhibition of AKT phosphorylation at T308 residue in human HGC-27 cells harboring PI3KCA mutation and overactive PI3K pathway by Western blot analysis; type: cell-based; settings: dose 0.08-0.4 µM
[11] = target: RAC-alpha serine/threonine-protein kinase (Homo sapiens) (UniProt P31749); experiment: Inhibition of AKT phosphorylation at S473 residue in human HGC-27 cells harboring PI3KCA mutation and overactive PI3K pathway by Western blot analysis; type: cell-based; settings: dose 0.08-0.4 µM
[12] = target: RAC-alpha serine/threonine-protein kinase (Homo sapiens) (UniProt P31749); experiment: Inhibition of AKT phosphorylation at S473 residue in human HGC-27 cells harboring PI3KCA mutation and overactive PI3K pathway at 0.08 to 0.4 uM compound irradiated for 5 mins at 520 nm by Western blot analysis; type: cell-based; settings: dose 0.08-0.4 µM
NCI-H460 [13] = experiment: as §1, with “NCI-H460” for “HGC-27”, “late” for “early”, “2.27%)” for “2.26%)”; type: functional
HGC-27 [14] = experiment: Inhibition of cell migration in human HGC-27 cells harboring PI3KCA mutation and overactive PI3K pathway assessed as reduction in migratory ability at 0.08 to 0.4 uM incubated for 16 hrs in presence of irradiation at 365 nm UV light for 2 mins once every 8 hrs by crystal violet staining based assay; type: functional; settings: dose 0.08-0.4 µM
HGC-27 [15] = experiment: Inhibition of colony formation in human HGC-27 cells harboring PI3KCA mutation and overactive PI3K pathway assessed as reduction in number of colonies incubated for 10 days in presence of irradiation at 365 nm UV light for 2 mins once every 8 hrs by crystal violet staining based assay; type: functional, cell-based; settings: dose 0.08-0.4 µM, time 10.0 day
NCI-H460 [16] = experiment: as §1, with “NCI-H460” for “HGC-27”, “2.6%)” for “2.26%)”; type: functional
NCI-H460 [17] = experiment: as §1, with “NCI-H460” for “HGC-27”, “0.08” for “0.4”, “2.6%)” for “2.26%)”; type: functional
[18] = target: T1, Ribosomal protein S6 kinase (Homo sapiens); experiment: Inhibition of S6 phosphorylation in human HGC-27 cells harboring PI3KCA mutation and overactive PI3K pathway by Western blot analysis; type: cell-based; settings: dose 0.08-0.4 µM
HGC-27 [19] = experiment: Inhibition of colony formation in human HGC-27 cells harboring PI3KCA mutation and overactive PI3K pathway assessed as reduction in number of colonies incubated for 10 days under dark condition by crystal violet staining based assay; type: functional, cell-based; settings: dose 0.08-0.4 µM, time 10.0 day
[20] = target: T2, Phosphatidylinositol 4,5-bisphosphate 3-kinase catalytic subunit alpha isoform; experiment: Inhibition of PI3Kalpha (unknown origin) using PIP2 as substrate incubated for 1 hr in presence of ATP under dark condition by ADP-Glo luminescent assay
HGC-27 [21] = experiment: Induction of apoptosis in human HGC-27 cells harboring PI3KCA mutation and overactive PI3K pathway assessed as early apoptotic cells at 0.08 uM incubated for 48 hrs under dark condition by Annexin V-FITC/PI staining based flow cytometry analysis (reference value: 2.26%); type: functional
[22] = target: RAC-alpha serine/threonine-protein kinase (Homo sapiens) (UniProt P31749); experiment: Inhibition of AKT phosphorylation at S473 residue in human HGC-27 cells harboring PI3KCA mutation and overactive PI3K pathway at 0.08 to 0.4 uM compound irradiated for 2 mins at 365 nm by Western blot analysis; type: cell-based; settings: dose 0.08-0.4 µM
NCI-H460 [23] = experiment: Induction of apoptosis in human NCI-H460 cells harboring PI3KCA mutation and overactive PI3K pathway assessed as late apoptotic cells at 0.08 uM incubated for 48 hrs under dark condition by Annexin V-FITC/PI staining based flow cytometry analysis (reference value: 2.27%); type: functional
NCI-H460 [24] = experiment: Induction of apoptosis in human NCI-H460 cells harboring PI3KCA mutation and overactive PI3K pathway assessed as late apoptotic cells at 0.4 uM incubated for 48 hrs under dark condition by Annexin V-FITC/PI staining based flow cytometry analysis (reference value: 2.27%); type: functional
NCI-H460 [25] = experiment: Induction of apoptosis in human NCI-H460 cells harboring PI3KCA mutation and overactive PI3K pathway assessed as early apoptotic cells at 0.08 uM incubated for 48 hrs under dark condition by Annexin V-FITC/PI staining based flow cytometry analysis (reference value: 2.6%); type: functional
[26] = target: RAC-alpha serine/threonine-protein kinase (Homo sapiens) (UniProt P31749); experiment: Inhibition of AKT phosphorylation at T308 residue in human HGC-27 cells harboring PI3KCA mutation and overactive PI3K pathway at 0.08 to 0.4 uM compound irradiated for 2 mins at 365 nm by Western blot analysis; type: cell-based; settings: dose 0.08-0.4 µM
HGC-27 [27] = experiment: Induction of apoptosis in human HGC-27 cells harboring PI3KCA mutation and overactive PI3K pathway assessed as late apoptotic cells at 0.4 uM incubated for 48 hrs under dark condition by Annexin V-FITC/PI staining based flow cytometry analysis (reference value: 3.39%); type: functional
NCI-H460 [28] = experiment: Induction of apoptosis in human NCI-H460 cells harboring PI3KCA mutation and overactive PI3K pathway assessed as early apoptotic cells at 0.4 uM incubated for 48 hrs under dark condition by Annexin V-FITC/PI staining based flow cytometry analysis (reference value: 2.6%); type: functional
HGC-27 [29] = experiment: Induction of apoptosis in human HGC-27 cells harboring PI3KCA mutation and overactive PI3K pathway assessed as late apoptotic cells at 0.08 uM incubated for 48 hrs under dark condition by Annexin V-FITC/PI staining based flow cytometry analysis (reference value: 3.39%); type: functional
HGC-27 [30] = experiment: Induction of apoptosis in human HGC-27 cells harboring PI3KCA mutation and overactive PI3K pathway assessed as early apoptotic cells at 0.4 uM incubated for 48 hrs under dark condition by Annexin V-FITC/PI staining based flow cytometry analysis (reference value: 2.26%); type: functional
HGC-27 [31] = experiment: as §2, with “dark condition” for “presence of irradiation with 365 nm UV light”; type: functional; settings: dose 0.391-0.781 ng
HGC-27 [32] = experiment: Inhibition of cell migration in human HGC-27 cells harboring PI3KCA mutation and overactive PI3K pathway assessed as reduction in migratory ability at 0.08 to 0.4 uM incubated for 16 hrs under dark condition by crystal violet staining based assay; type: functional; settings: dose 0.08-0.4 µM
[33] = target: T1, Ribosomal protein S6 kinase (Homo sapiens); experiment: Inhibition of S6 phosphorylation in human HGC-27 cells harboring PI3KCA mutation and overactive PI3K pathway at 0.08 to 0.4 uM compound irradiated for 2 mins at 365 nm by Western blot analysis; type: cell-based; settings: dose 0.08-0.4 µM

COc1ncc(-c2cc(Oc3ccc(/N=N\c4ccc(Oc5cc(-c6cnc(OC)c(NS(=O)(=O)c7ccc(F)cc7F)c6)cc6c(C)ncnc56)cc4)cc3)c3ncnc(C)c3c2)cc1NS(=O)(=O)c1ccc(F)cc1F
Activity (HGC-27 [1]): 66.74% | inhibition [2]: Active | Activity (HGC-27 [3]): Active | IC50 [4]: 0.00524 µM | Activity (HGC-27 [5]): 3.6% | Activity (HGC-27 [6]): 14.28% | Activity (HGC-27 [7]): 33.67% | inhibition [8]: Active | Activity (NCI-H460 [9]): 18.8% | inhibition [10]: Dose-Dependent Effect | inhibition [11]: Dose-Dependent Effect | inhibition [12]: Active | Activity (NCI-H460 [13]): 26.4% | inhibition (HGC-27 [14]): Active | inhibition (HGC-27 [15]): Dose-Dependent Effect | Activity (NCI-H460 [16]): 6.05% | Activity (NCI-H460 [17]): 5.44% | inhibition [18]: Dose-Dependent Effect

COc1ncc(-c2cc(Oc3ccc(/N=N/c4ccc(Oc5cc(-c6cnc(OC)c(NS(=O)(=O)c7ccc(F)cc7F)c6)cc6c(C)ncnc56)cc4)cc3)c3ncnc(C)c3c2)cc1NS(=O)(=O)c1ccc(F)cc1F
inhibition (HGC-27 [19]): Dose-Dependent Effect | IC50 [20]: 0.0177 µM | Activity (HGC-27 [21]): 7.28% | inhibition [22]: Active | Activity (NCI-H460 [23]): 3.17% | Activity (NCI-H460 [24]): 4.84% | Activity (NCI-H460 [25]): 2.69% | inhibition [26]: Active | inhibition [10]: Dose-Dependent Effect | Activity (HGC-27 [27]): 15.95% | inhibition [11]: Dose-Dependent Effect | Activity (NCI-H460 [28]): 2.36% | Activity (HGC-27 [29]): 5.11% | Activity (HGC-27 [30]): 14.86% | Activity (HGC-27 [31]): Active | inhibition (HGC-27 [32]): Active | inhibition [18]: Dose-Dependent Effect | inhibition [33]: Active
